In US6677370B2, “Compositions and uses of dictyostatin compounds” (Harbor Branch Oceanographic Institution, Inc., priority 2000, dated 2004):
Like-named read-outs stand apart in the source and are kept apart here.

Key:
[1] = system: PANC-1 human pancreatic adenocarcinoma cells; test: Immunofluorescent detection of effects on the microtubule matrix (anti-alpha-tubulin); type: cell-based; conditions: PANC-1 cells, 100 nM, overnight
Description: Dictyostatin-1 was evaluated as to its effects on the microtubule network of cells using anti-alpha-tubulin monoclonal antibodies.
PANC-1 human pancreatic adenocarcinoma cells were maintained in tissue culture media (TCM=Roswell Park Memorial Institute (RPMI) medium 1640 supplemented with 100 U/ml penicillin, […] streptomycin, 60 mg/ml 1-glutamine, 18 mM HEPES, 0.05 mg/ml gentamicin and 10% fetal bovine serum) and cultured in plastic culture flasks at 37° C. in humidified air containing 5% CO2. Stock cultures of PANC-1 cells were subcultured 1:10 every 3 to 4 days. On day 1, 1.25×10^5 PANC-1 cells were sub-cultured in TCM overnight at 37° C. in 5% CO2 on 22 mm^2 coverslips in 6-well microtiter plates. On day 2, TCM was removed and replaced with various concentrations of dictyostatin-1, or Taxol, in TCM or TCM without drug (control) and incubated overnight at 37° C. in 5% CO2. On day 3, TCM was removed and cells attached to coverslips were fixed with a 3.7% formaldehyde solution in Dulbecco's PBS for 10 minutes at room temperature. Cells were permeabilized with a 2% Triton X-100 solution, 2 ml per well, for 5 minutes at room temperature and washed twice in Dulbecco's PBS prior to staining. […]

[2] = system: MES-SA human uterine carcinoma; test: Cytotoxicity, MTT assay, MES-SA; type: cell-based; conditions: read-out: IC50 (Std dev) MES-SA
Description: (§1) The cytotoxicity of dictyostatin-1 for various Taxol resistant and sensitive cell lines was compared to that of Taxol. The cell lines used were A549 human adenocarcinoma, MCF-7 human breast carcinoma, MCF-7ADR multi-drug resistant (Taxol resistant) human breast carcinoma, MES-SA human uterine carcinoma and MES-SA/DX5 Taxol resistant uterine carcinoma. All cell lines were maintained in Roswell Park Memorial Institute (RPMI) medium 1640 supplemented with 100 U/ml penicillin, […] streptomycin, 60 mg/ml 1-glutamine, 18 mM HEPES, 0.05 mg/ml gentamicin (Life Technologies, Gaithersburg, Md.) and 10% fetal bovine serum and cultured in plastic tissue culture flasks at 37° C. in humidified air containing 5% CO2. […] To spectrophotometrically quantitate formation of reduced formazan, plates are centrifuged (500×g, 10 minutes), culture fluids removed by aspiration, and 200 μl of acidified isopropanol (2 ml concentrated HC1/liter isopropanol) added per well. The absorbance of the resulting solutions is measured in a plate reader (Tecan Spectra SLT; TECAN U.S., Research Triangle Park, N.C.) at 570 nm and a 650 nm reference filter. […] The two standard drug controls (indicated above) are included in each assay as a check to monitor the drug sensitivity of each of the cell lines and IC50 values are determined for each drug-cell combination.

[3] = system: PANC-1 human pancreatic adenoma cells; test: Cell cycle progression of PANC-1 cells (propidium iodide flow cytometry); type: cell-based; conditions: 100 nM, 24 hours; for percentage of cells in S phase: untreated control 5.8%; for percentage of cells in G2/M phase: untreated control 34.4%; for percentage of cells comprising the G1 population: untreated control 59.8%
Description: Cell cycle studies were initiated in order to pinpoint a specific phase within the cell cycle in which dictyostatin-1 was exerting its antiproliferative effect. PANC-1 human pancreatic adenoma cells were used as cell cycle targets to compare the effects on perturbation of the cell cycle of dictyostatin-1 to the known mitotic spindle inhibitor […]. Cell cycle analyses were performed as follows: PANC-1 cells were incubated at 37° C. in 5% CO2 in air in the presence or absence of varying concentrations of dictyostatin-1 or Taxol for 24 hours.
Cells were harvested, fixed in ethanol and stained with 0.02 mg/ml of propidium iodide (P.I.) together with 0.1 mg/ml of RNAse A. This procedure permeabilizes cells and allows entry of P.I. to stain DNA (propidium iodide also stains double stranded RNA, so RNAse is included in the preparation to exclude this possibility). Stained preparations were analyzed on a Coulter EPICS ELITE with 488 nm excitation. Fluorescence measurements and resulting DNA histograms were collected from at least 3,000 P.I. stained cells at an emission wavelength of 690 nm. Raw histogram data was further analyzed using a cell cycle analysis program (Multicycle, Phoenix Flow Systems).

[4] = system: A549 human adenocarcinoma; test: Cytotoxicity, MTT assay, A549; type: cell-based; conditions: read-out: IC50 (Std dev) A549
Description: as §1

[5] = system: purified bovine brain tubulin; test: Polymerization of purified tubulin (optical density at 350 nm); type: biochemical; conditions: 10 μM
Description: Polymerization of purified bovine brain tubulin (Cytoskeleton Inc., Denver, Co.) was followed by changes in the optical density of tubulin solutions at 350 nm in a Hitachi U-3010 spectrophotometer equipped with a SPR-10 electronic thermostatted cell holder. Stock solutions of tubulin were diluted on ice in G-PEM buffer (1 mM GTP, 80 mM PIPES (piperazine-N,N′-bis(2-ethanesulfonic acid]sesquisodium salt), 1 mM EGTA (ethylene glycol-bis(b-amine ethyl ether) N,N,N,N′-tetra acetic acid), 0.5 mM magnesium chloride; pH 6.8) to a final concentration of 1 mg/ml. The instrument was zeroed on this solution at 4° C. Dictyostatin-1, was then added to the tubulin to a final concentration of 10 μM and quickly mixed. The polymerization was monitored by observing light scattering changes in optical density at 350 nm using the spectrophotometer. The temperature was varied for a time period of […] beginning at 4° C. for 1 minute, then linearly ramping to 35° C. over 30 minutes, with a hold of one minute at 35° C., then linearly decreasing to 4° C. over 15 minutes, with this temperature being maintained for an additional 15 minutes. Absorbance was measured and recorded over the entire time period.

[6] = system: MCF-7 human breast carcinoma; test: Cytotoxicity, MTT assay, MCF-7; type: cell-based; conditions: read-out: IC50 (Std dev) MCF-7
Description: as §1

[7] = system: MES-SA/DX5 Taxol resistant uterine carcinoma; test: Cytotoxicity, MTT assay, MES-SA/DX5; type: cell-based, human; conditions: for IC50: Homo sapiens, read-out: IC50 (Std dev) MES-SA/DX5; for Resistance, MES-SA/DX5 relative to MES-SA: ratio of IC50 values, resistant vs sensitive line; for resistance of MES-SA/DX5 cells: resistant vs Taxol-sensitive counterpart
Description: (§2) The cytotoxicity of dictyostatin-1 for various Taxol resistant and sensitive cell lines was compared to that of Taxol. The cell lines used were A549 human adenocarcinoma, MCF-7 human breast carcinoma, MCF-7ADR multi-drug resistant (Taxol resistant) human breast carcinoma, MES-SA human uterine carcinoma and MES-SA/DX5 Taxol resistant uterine carcinoma. All cell lines were maintained in Roswell Park Memorial Institute (RPMI) medium 1640 supplemented with 100 U/ml penicillin, […] streptomycin, 60 mg/ml 1-glutamine, 18 mM HEPES, 0.05 mg/ml gentamicin (Life Technologies, Gaithersburg, Md.) and 10% fetal bovine serum and cultured in plastic tissue culture flasks at 37° C. in humidified air containing 5% CO2. Stock cultures of cells were subcultured 1:10 every 3 to 4 days. To assess the antiproliferative effects of agents against the cells, 200 μl cultures (96-well tissue culture plates, Nunc, Denmark) were established at 1×10^5 cells/mL in TCM or TCM containing the test agent at 0.03-5.0 μg/ml. After 72 -h exposures, the effects of dictyostatin-1 and Taxol on cell proliferation were quantitated and IC50 values determined as follows: 75 μl of warm growth media containing 5 mg/ml 3-[4,5-dimethylthiazol-2-yl]-2,5-diphenyltetrazolium bromide (MTT) (M. C. Alley et al. (1988) Cancer Res. 48:589) was added to each well, cultures returned to the incubator, and left undisturbed for 3 hours. To spectrophotometrically quantitate formation of reduced formazan, plates are centrifuged (500×g, 10 minutes), culture fluids removed by aspiration, and 200 μl of acidified isopropanol (2 ml concentrated HC1/liter isopropanol) added per well. The absorbance of the resulting solutions is measured in a plate reader (Tecan Spectra SLT; TECAN U.S., Research Triangle Park, N.C.) at 570 nm and a 650 nm reference filter. The absorbance of tests wells is divided by the absorbance of drug-free wells, and the concentration of agent that results in 50% of the absorbance of untreated cultures (IC50) is determined by linear regression of logit-transformed data (D. J. Finney, Statistical Method in Biological Assay, Third Ed., pp.316-348, Charles Griffin Co., London, 1978). A linear relationship between tumor cell number and formazan production has been routinely observed over the range of cell densities observed in these experiments. The two standard drug controls (indicated above) are included in each assay as a check to monitor the drug sensitivity of each of the cell lines and IC50 values are determined for each drug-cell combination.

[8] = system: MCF-7ADR multi-drug resistant (Taxol resistant) human breast carcinoma; test: Cytotoxicity, MTT assay, MCF-7/ADR; type: cell-based; conditions: for IC50: Homo sapiens, NCI/ADR-RES, read-out: IC50 (Std dev) MCF-7/ADR; for Resistance, MCF-7/ADR relative to MCF-7: ratio of IC50 values, resistant vs sensitive line; for resistance of MCF-7ADR cells: resistant vs Taxol-sensitive counterpart
Description: as §2

cellular proliferation = conditions: literature; cited from earlier work

SMILES	effect on microtubule network (bundling) [1]	percentage of cells in S phase [3]	percentage of cells in G2/M phase [3]	percentage of cells comprising the G1 population [3]	Resistance, MES-SA/DX5 relative to MES-SA [7]	resistance of MES-SA/DX5 cells [7]	Resistance, MCF-7/ADR relative to MCF-7 [8]	resistance of MCF-7ADR cells [8]	IC50 values, inhibition of cellular proliferation (cellular proliferation)	also measured
C=C/C=C\C(C)C1OC(=O)/C=C\C=C\C(C)C(O)CC(O)/C=C\C(C)C(O)C(C)CC(C)CCC(O)C1C (stereo not drawn) [Dictyostatin-1]	extensive microtubule bundling resulting in almost complete depletion of non-bundled microtubular material in the cytoplasm	30%	35%	36%	3×	3 fold	13×	13 fold	–	IC50 ([2]; 72 h): 4.1 nM; IC50 ([4]; A549, 72 h): 0.95 nM; stability of polymerized tubulin on cooling ([5]; temperature decreased from 35° C. to 4° C.): did not substantially depolymerize upon reduction of the temperature; induction of tubulin polymerization ([5]; tubulin 1 mg/ml, temperature ramp 4° C. to 35° C.): induced tubulin polymerization with a maximum polymerization level reached at 35 °C; IC50 ([6]; MCF7, 72 h): 1.5 nM; IC50 ([7]; MES-SA/Dx5, 72 h): 11 nM; IC50 ([8]; 72 h): 20 nM
C=C1C[C@H](C)C[C@@H]2CC=C[C@@H](C/C=C\C(=O)O[C@H]([C@@H](O)/C=C/[C@@H]3CC(C)=CCO3)C[C@@H]3O[C@H]3[C@@H](O)C1)O2 [Laulimalide]	–	–	–	–	–	–	–	–	low nanomolar range	–
CC(=O)O[C@H]1C(=O)[C@@]2(C)[C@H]([C@H](OC(=O)c3ccccc3)[C@]3(O)C[C@H](OC(=O)[C@H](O)[C@@H](NC(=O)c4ccccc4)c4ccccc4)C(C)=C1C3(C)C)[C@]1(OC(C)=O)CO[C@@H]1C[C@@H]2O [Taxol]	characteristic formation of microtubular “bundles” but also a substantial amount of “non-bundled” microtubular material still remained in the cytoplasm	27%	47%	26%	501×	501 fold	1332×	1332 fold	–	IC50 ([2]; 72-h exposure, MTT): 3.3 nM; IC50 ([4]; A549, 72-h exposure, MTT): 5.13 nM; IC50 ([6]; MCF7, 72-h exposure, MTT): 2.5 nM; IC50 ([7]; MES-SA/Dx5, 72-h exposure, MTT): 1650 nM; IC50 ([8]; 72-h exposure, MTT): 3330 nM
C=C1CC(C)C[C@@H]2CC=C[C@@H](C/C=C\C(=O)O[C@@H]3C[C@H](O[C@@H]3/C=C/[C@H]3CC(C)=CCO3)[C@H](O)C(O)C1)O2 (stereo partly drawn) [isolaulimalide]	–	–	–	–	–	–	–	–	low micromolar range	–
